This is an account of results in patent US20250017848A1, “CARRIER OR AUXILIARY MATERIAL OF OPHTHALMIC PREPARATION, PREPARATION METHOD THEREFOR, AND APPLICATION THEREOF” (CHENGDU RUIMU BIOPHARMACEUTICALS CO., LTD., priority 2021, published 2025).

Molecules are shown by their SMILES. Values after ≈ are worked out from the molar mass of the structure shown. Values joined by “and” are separate entries in the source; they are usually repeats but may differ in a detail not shown here. Equal values may be shown once.

A short description of series [1]: API concentration in rat vitreous body after eye drops (LC/MS/MS). The class given is in vivo, Sprague Dawley (SD) rats. As to conditions: 0.5 h after eye drops, 20 μL/eye; for concentration at 0.5 h: Sprague Dawley, rat, vitreous body, topical, read-out: API concentration in the vitreous body (vitreum) of rats. The protocol:
Unless otherwise stated, the method for verifying the result of delivering medicaments to the posterior segment of the eye was as follows:
Experimental instrument and equipment: High performance liquid chromatography, model: LC-20AD (Shimadzu, Japan); mass spectrometer: model: API4000 triple quadrupole mass spectrometer (Applied Biosystems, USA); chromatographic column: Fortis Pace C18 […], 2.1×30 mm (Fortis, UK).
Rats: Healthy adult Sprague Dawley (SD) rats were divided into a test group and a control group, with 6 eyes in each group. The test group received eye drops of the ophthalmic preparation prepared in the Example of the present invention, while the control group received the suspension of medicament (2 mg) in 5 mL of physiological saline (vortex shaking prior to use), at a dosage of 20μL/eye. 0.5 h or 1 h after administration, the animals were euthanized, and the vitreous bodies were quickly collected. The vitreous samples were homogenized and stored at-80° C. To 10 μL of vitreous homogenate, was added 90 μL of 95% ethanol, and then the solution was mixed under ultrasonic for 2 min, followed by vortex mixing for 1 min, to obtain the vitreous homogenate; to 50 μL of the homogenate, was added 175 μL of methanol, and then the resultant solution was vortex mixed for 3 min, and centrifuged at 4° C. and 12000 rpm for 10 min. The supernatant was filtered using a 0.45 μm needle filter. The filtrate was subjected to LC/MS/MS (Positive ion mode, MRM SCAN) analysis.

In series [2] the test system is human cytomegalovirus strains HCMV-AD169. In words: In vitro inhibitory activity against human cytomegalovirus (CPE in MRC-5 cells). The class given is cell-based. The settings on record: for CPE of each well: 4 wells. The procedure:
The eye drop delivery systems of ganciclovir prepared in the Examples were tested for its in vitro inhibitory activities against human cytomegalovirus (HCMV).
Human embryo lung fibroblasts (MRC-5) infected with human cytomegalovirus strains HCMV-AD169 were chosen and used in the experiment, and the antiviral activity of ganciclovir was investigated with half effective dose (EC50). Four groups were included in the experiment, that is, the test group of the eye drop delivery systems prepared in the Examples, the test group of ganciclovir technical drug, the negative control group (MRC-5 cells), and the positive control group (MRC-5 cells infected with HCMV-AD169). The samples of both test groups were diluted with the culture media to obtain 6 diluted concentrations: 500 μg/mL, 250 μg/mL, 125 μg/mL, 62.5 μg/mL, 31.25 μg/mL, and 15.63 μg/mL, and 4 wells were set for each diluted concentration. Cytopathic effect (CPE) was used as an indicator: 0 for no cytopathy, 1 for ≤25% cytopathy, 2 for 25%-50% cytopathy, 3 for 50%-75% cytopathy, and 4 for 75%-100% cytopathy. The half effective dose (EC50) was calculated using Reed-Munch method: EC50=10n; n=[(logarithm of the dilution degree corresponding to an efficiency of >50%)+(percentage of >50% efficiency−50%)/(percentage of >50% efficiency−percentage of <50% efficiency)×logarithm of the dilution coefficient.
The experimental procedures were as follows: MRC-5 cells were adjusting to approximate 1.5×10^5/mL, and then added a 96 well plate, 100 μL of culture media for each well. The plate was cultured in a 37° C., 5% CO2 cell incubator, and then the supernatant was discarded after the cells adhered to the wall as a monolayer. Except for the control groups, […] were added to each well of both test groups at a concentration of 100×TC50 (half of the virus infected cells obtained in the pre-experiment) and then incubated for 2 h. The supernatant was discarded. A series of test samples were added at 100 μL/well, and then the plate was further cultivated. The CPE of each well was observed. When the CPE of the positive control group reached more than 90%, the CPE of each well was recorded, and the half effective dose (EC50) was calculated using the Reed Munch method.

Series [3] relates to Streptococcus pneumoniae ATCC49619. In words: In vitro bacteriostasis test (MIC, broth microdilution). Format: cell-based. The settings on record: read-out: Minimum inhibitory concentration (MIC). The procedure: (§1) The in vitro bacteriostasis test (MIC) was carried out on the moxifloxacin eye drop delivery system prepared in the Example. The moxifloxacin technical drug was used as the control, while the moxifloxacin eye drop delivery system prepared in Example 6 was used as the test sample, to prepare a drug sensitive plate, so that the drug sensitive plate contained 7-8 diluted concentrations of moxifloxacin technical drug (the control) and the test sample, which was obtained by dilution in a ratio of 1:2. 25 bacterial strains incubated for 18 h-24 h were chosen using inoculation loop, and transferred into sterile physiological saline to form a bacterial suspension equivalent to 0.5 MCF; the bacterial suspension was added to the liquid drug sensitive media, in which the ratio of the bacterial suspension to the liquid media was 1:200, and mixed well, then 100 μL of diluted bacterial solution was added to each well; the media was incubated at 35° C.±2° C. for 16-20 h; the growth of bacteria in each well was determined by turbidity, and observed from low concentration to high concentration. The minimum drug concentration that could inhibit bacterial growth was the MIC of the drug.
Background: Broth dilution looks for growth in wells or tubes with falling amounts of substance.

The subject of series [4] is Staphylococcus aureus ATCC29213. The description is as above. Format: cell-based. The settings on record: read-out: Minimum inhibitory concentration (MIC). The procedure: as §1
The test system of series [5] is Enterococcus faecalis ATCC29212. The description is as above. Format: cell-based. As to conditions: read-out: Minimum inhibitory concentration (MIC). The protocol: as §1
Series [6] relates to Haemophilus influenza ATCC49247. The series is described as above. The class given is cell-based. The settings on record: read-out: Minimum inhibitory concentration (MIC). The protocol: as §1
Series [7] concerns Escherichia coli ATCC25922. The series is described as above. As to conditions: read-out: Minimum inhibitory concentration (MIC). Format: cell-based. The protocol:
as §1

The next series relates to Streptococcus pneumoniae. The series is described as above. As to conditions: 3 unnamed strains (one per table line), read-out: Minimum inhibitory concentration (MIC). The class given is cell-based. The procedure: as §1
Series [8] relates to Pseudomonas aeruginosa ATCC27853. The series is described as above. The settings on record: read-out: Minimum inhibitory concentration (MIC). Format: cell-based. The procedure: as §1

In the case of `O=C(O)CCCC[C@@H]1CCSS1` (racemic) [lipoic acid], the “API concentration in the vitreous body (vitreum) of rats” value in [1] is < 1 ng/g.

As to `Nc1nc(O)c2ncn(COC(CO)CO)c2n1` [Ganciclovir technical drug, ganciclovir], the Effective rate came out at 21% in series [2] (15.63 μg/mL); 35% in series [2] (31.25 μg/mL); 64% in series [2] (62.5 μg/mL); 77% in series [2] (125 μg/mL); 91% in series [2] (250 μg/mL); 97% in series [2] (500 μg/mL). The “CPE of each well” value was 4 (4 for 75%-100% cytopathy) and 3 (3 for 50%-75% cytopathy) in [2] (15.63 μg/mL); 3 (3 for 50%-75% cytopathy) in [2] (31.25 μg/mL); 2 (2 for 25%-50% cytopathy) and 3 (3 for 50%-75% cytopathy) in series [2] (62.5 μg/mL); 2 (2 for 25%-50% cytopathy) and 1 (1 for ≤25% cytopathy) in [2] (125 μg/mL).

Consider `COc1c(N2C[C@@H]3CCCN[C@@H]3C2)c(F)cc2c(=O)c(C(=O)O)cn(C3CC3)c12` [Moxifloxacin, moxifloxacin], for which the MIC in [3] is 0.12 µg/mL (≈ 0.299 µM); in series [4], 0.12 µg/mL (≈ 0.299 µM); in [5], 0.5 µg/mL (≈ 1.25 µM); in [6], ≤ 0.032 µg/mL; in [7], 0.06 µg/mL (≈ 0.149 µM); in the series with Streptococcus pneumoniae, 0.25 µg/mL (≈ 0.623 µM). In series [8], the MIC amounted to 4 µg/mL (≈ 9.96 µM).

For `C[C@@H]1C[C@H]2[C@@H]3CCC4=CC(=O)C=C[C@]4(C)[C@@]3(F)[C@@H](O)C[C@]2(C)[C@@]1(O)C(=O)CO` [dexamethasone], the concentration at 0.5 h in series [1] was < 1 ng/g.

As to `C[C@H]1c2cccc(O)c2C(=O)C2=C(O)[C@]3(O)C(=O)C(C(N)=O)=C(O)[C@@H](N(C)C)[C@@H]3[C@@H](O)[C@@H]21` [doxycycline], the concentration at 0.5 h in [1] was < 1 ng/g.
